“And” between values parts separate entries of the source, which are not always exact repeats. Equal values may be shown once.
How the values were obtained:
Assay in all cases: Treated filter paper knockdown (KD) and mortality trial (Example 4)
Assay type in all cases: in vivo
[1] = tested on: Southern house mosquito (Culex)
Experimental: (§1) A laboratory trial was conducted to assess the efficacy of nootkatone applied to filter paper against aphids (Schizaphis gramium), dust mites (Dermatophagoides sp.), termites (Reticulitermes flavipes), deer ticks (Ixodes scapularis), biting midges (Culicoides sp.), fire ants (Solenopsis invicta), and mosquitoes (Aedes aegypti and Culex), in terms of knockdown (KD) and mortality. One concentration (1% in ethanol) of nootkatone was assessed for most species, but three concentrations (0.25%, 0.5%, and 1% in ethanol) were assessed for mosquitoes. A negative control group, consisting of filter paper treated with ethanol, was also assessed for comparison purposes for each species.
(§2) Test systems were introduced to treated filter paper, allowed to dry, and then introduced into treatment chamber, where treated arthropods were monitored at intervals up to 72 hours. If 100% mortality was obtained prior to 72 hours, the individual study was halted.
(§3) Midges and mosquitoes—5 replicates of 10 insects per treatment were tested. Inverted 10 ounce (295 ml) clear plastic cups with a 0.5 inch (1.27 cm) hole burned into the center of the bottom, and with the sides coated with Fluon® was used at the treatment containers. The bottoms of the containers consisted of Petri dish lids 3.54 inches (9.0 cm) in diameter lined with a treated filter paper circle the same diameter. The cup was placed over the filter paper in the lid and both were secured in place using 2 rubber bands. The insects were introduced through the hole in the cup, and a plastic disc was placed over the opening to prevent escapes.
(§4) Readings were discontinued if treated mortality reaches […], or control mortality exceeds 20%.

[2] = tested on: Yellow Fever mosquito (Aedes aegypti)
Experimental: as §1, §2, §3, §4

[3] = tested on: biting midges (Culicoides sp.); settings: Nootkatone 1% in ethanol on filter paper
Experimental: as §1, §2, §3, §4

[4] = Nootkatone 0.25% in ethanol on filter paper, 30 minutes post introduction
[5] = Nootkatone 0.25% in ethanol on filter paper, 1 hour post introduction
[6] = Nootkatone 0.25% in ethanol on filter paper, 4 hours post introduction
[7] = Nootkatone 0.25% in ethanol on filter paper, 8 hours post introduction
[8] = Nootkatone 0.25% in ethanol on filter paper, 24 hours post introduction
[9] = Nootkatone 0.25% in ethanol on filter paper, 48 hours post introduction
[10] = Nootkatone 0.25% in ethanol on filter paper, 72 hours post introduction
[11] = Nootkatone 0.5% in ethanol on filter paper, 30 minutes post introduction
[12] = Nootkatone 0.5% in ethanol on filter paper, 1 hour post introduction
[13] = Nootkatone 0.5% in ethanol on filter paper, 4 hours post introduction
[14] = Nootkatone 0.5% in ethanol on filter paper, 8 hours post introduction
[15] = Nootkatone 0.5% in ethanol on filter paper, 24 hours post introduction
[16] = Nootkatone 0.5% in ethanol on filter paper, 48 hours post introduction
[17] = Nootkatone 0.5% in ethanol on filter paper, 72 hours post introduction
[18] = Nootkatone 1% in ethanol on filter paper, 30 minutes post introduction
[19] = Nootkatone 1% in ethanol on filter paper, 1 hour post introduction
[20] = Nootkatone 1% in ethanol on filter paper, 4 hours post introduction
[21] = Nootkatone 1% in ethanol on filter paper, 8 hours post introduction
[22] = Nootkatone 1% in ethanol on filter paper, 24 hours post introduction
[23] = Nootkatone 1% in ethanol on filter paper, 48 hours post introduction
[24] = Nootkatone 1% in ethanol on filter paper, 72 hours post introduction

Compound: C=C(C)[C@@H]1CCC2=CC(=O)C[C@@H](C)[C@]2(C)C1 [Nootkatone, nootkatone]
- Means Affected [1, 4]: 24.0%
- Means Dead [1, 4]: 0.0%
- Means KD [1, 4]: 24.0%
- Means Affected [1, 5]: 22.0%
- Means Dead [1, 5]: 0.0%
- Means KD [1, 5]: 22.0%
- Means Affected [1, 6]: 32.2%
- Means Dead [1, 6]: 0.0%
- Means KD [1, 6]: 32.2%
- Means Affected [1, 7]: 18.0%
- Means Dead [1, 7]: 0.0%
- Means KD [1, 7]: 18.0%
- Means Affected [1, 8]: 26.2%
- Means Dead [1, 8]: 12.2%
- Means KD [1, 8]: 14.0%
- Means Affected [1, 9]: 75.6%
- Means Dead [1, 9]: 61.3%
- Means KD [1, 9]: 14.2%
- Means Affected [1, 10]: 76.0%
- Means Dead [1, 10]: 74.0%
- Means KD [1, 10]: 2.0%
- Means Affected [1, 11]: 0.0%
- Means Dead [1, 11]: 0.0%
- Means KD [1, 11]: 0.0%
- Means Affected [1, 12]: 2.5%
- Means Dead [1, 12]: 0.0%
- Means KD [1, 12]: 2.5%
- Means Affected [1, 13]: 4.0%
- Means Dead [1, 13]: 0.0%
- Means KD [1, 13]: 4.0%
- Means Affected [1, 14]: 4.0%
- Means Dead [1, 14]: 0.0%
- Means KD [1, 14]: 4.0%
- Means Affected [1, 15]: 29.0%
- Means Dead [1, 15]: 10.5%
- Means KD [1, 15]: 18.5%
- Means Affected [1, 16]: 72.0%
- Means Dead [1, 16]: 49.0%
- Means KD [1, 16]: 23.0%
- Means Affected [1, 17]: 82.0%
- Means Dead [1, 17]: 82%
- Means KD [1, 17]: 0.0%
- Means Affected [1, 18]: 2.2%
- Means Dead [1, 18]: 0.0%
- Means KD [1, 18]: 2.2%
- Means Affected [1, 19]: 52.2%
- Means Dead [1, 19]: 0.0%
- Means KD [1, 19]: 52.2%
- Means Affected [1, 20]: 83.7%
- Means Dead [1, 20]: 0.0%
- Means KD [1, 20]: 83.7%
- Means Affected [1, 21]: 92.0%
- Means Dead [1, 21]: 13.1%
- Means KD [1, 21]: 78.9%
- Means Affected [1, 22]: 100.0%
- Means Dead [1, 22]: 97.8%
- Means KD [1, 22]: 2.2%
- Means Affected [1, 23]: 100.0%
- Means Dead [1, 23]: 100.0%
- Means KD [1, 23]: 0.0%
- Means Affected [1, 24]: 100.0%
- Means Dead [1, 24]: 100%
- Means KD [1, 24]: 0.0%
- Means Affected [2, 4]: 17.8%
- Means Dead [2, 4]: 17.8%
- Means KD [2, 4]: 0.0%
- Means Affected [2, 5]: 20.0%
- Means Dead [2, 5]: 20.0%
- Means KD [2, 5]: 0.0%
- Means Affected [2, 6]: 20.0%
- Means Dead [2, 6]: 20.0%
- Means KD [2, 6]: 0.0%
- Means Affected [2, 7]: 17.8%
- Means Dead [2, 7]: 15.6%
- Means KD [2, 7]: 2.2%
- Means Affected [2, 8]: 17.8%
- Means Dead [2, 8]: 13.3%
- Means KD [2, 8]: 4.4%
- Means Affected [2, 9]: 17.6%
- Means Dead [2, 9]: 15.6%
- Means KD [2, 9]: 2.0%
- Means Affected [2, 10]: 26.0%
- Means Dead [2, 10]: 17.6%
- Means KD [2, 10]: 8.4%
- Means Affected [2, 11]: 0.0%
- Means Dead [2, 11]: 0.0%
- Means KD [2, 11]: 0.0%
- Means Affected [2, 12]: 0.0%
- Means Dead [2, 12]: 0.0%
- Means KD [2, 12]: 0.0%
- Means Affected [2, 13]: 5.3%
- Means Dead [2, 13]: 0.0%
- Means KD [2, 13]: 5.3%
- Means Affected [2, 14]: 29.9%
- Means Dead [2, 14]: 0.0%
- Means KD [2, 14]: 29.9%
- Means Affected [2, 15]: 83.1%
- Means Dead [2, 15]: 22.5%
- Means KD [2, 15]: 60.6%
- Means Affected [2, 16]: 87.1%
- Means Dead [2, 16]: 72.0%
- Means KD [2, 16]: 15.1%
- Means Affected [2, 17]: 100.0%
- Means Dead [2, 17]: 92% and 92.5%
- Means KD [2, 17]: 7.5%
- Means Affected [2, 18]: 0.0%
- Means Dead [2, 18]: 0.0%
- Means KD [2, 18]: 0.0%
- Means Affected [2, 19]: 1.8%
- Means Dead [2, 19]: 0.0%
- Means KD [2, 19]: 1.8%
- Means Affected [2, 20]: 46.9%
- Means Dead [2, 20]: 0.0%
- Means KD [2, 20]: 46.9%
- Means Affected [2, 21]: 80.4%
- Means Dead [2, 21]: 0.0%
- Means KD [2, 21]: 80.4%
- Means Affected [2, 22]: 84.0%
- Means Dead [2, 22]: 65.5%
- Means KD [2, 22]: 18.5%
- Means Affected [2, 23]: 90.0%
- Means Dead [2, 23]: 80.4%
- Means KD [2, 23]: 9.6%
- Means Affected [2, 24]: 94.0%
- Means Dead [2, 24]: 92%
- Means KD [2, 24]: 2.0%
- Time required for greater than 90% killing [3]: 24 h
- Means Affected ([3]; 30 minutes post introduction): 100.0%
- Means Dead ([3]; 30 minutes post introduction): 0.0%
- Means KD ([3]; 30 minutes post introduction): 100.0%
- Means Affected ([3]; 1 hour post introduction): 100.0%
- Means Dead ([3]; 1 hour post introduction): 1.8%
- Means KD ([3]; 1 hour post introduction): 98.2%
- Means Affected ([3]; 4 hours post introduction): 100.0%
- Means Dead ([3]; 4 hours post introduction): 78.7%
- Means KD ([3]; 4 hours post introduction): 21.3%
- Means Affected ([3]; 24 hours post introduction): 100.0%
- Means Dead ([3]; 24 hours post introduction): 100%
- Means KD ([3]; 24 hours post introduction): 0.0%
- Means Dead ([3]; 24 hours post introduction, listed as nootkatone): 100%
